According to US7750135B2, “Molecular design of thermostable alcohol dehydrogenase for synthesis for chiral aromatic alcohols” (Board of Trustees of Michigan State University, priority 2007, dated 2010):
Read-outs that look alike come from different tables or passages of the source.

Legend:
wild-type (WT) TeSADH = molecular target: T1, wild-type (WT) TeSADH (Thermoanaerobacter brockii, UniProt P14941, A186D); format: biochemical, Thermoanaerobacter ethanolicus; settings: 60° C., 1 min, 50 mM Tris-HCl pH~6.5 (ketones) or pH~8.0 (alcohols), 0.4 mM NADP(H)
T1 construct: made in house; the wild-type adhB gene sat in plasmid pADHBIM1-kan
T1 sequence (P14941 whole entry A186D): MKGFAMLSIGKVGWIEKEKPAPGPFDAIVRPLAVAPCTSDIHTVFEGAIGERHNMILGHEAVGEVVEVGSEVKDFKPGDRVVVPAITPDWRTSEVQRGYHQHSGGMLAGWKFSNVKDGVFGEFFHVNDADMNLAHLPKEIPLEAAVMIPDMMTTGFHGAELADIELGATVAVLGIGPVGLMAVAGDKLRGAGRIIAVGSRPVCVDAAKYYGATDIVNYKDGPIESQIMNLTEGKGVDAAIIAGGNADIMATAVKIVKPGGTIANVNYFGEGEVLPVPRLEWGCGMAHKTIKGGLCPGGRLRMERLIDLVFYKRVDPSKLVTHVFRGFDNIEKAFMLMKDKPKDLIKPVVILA
Method: (§1) J. 302:163-170), with (rac)-2-butanol, (rac)-1-phenethyl alcohol, (rac)-1-phenyl-2-propanol, (rac)-4-phenyl-2-butanol, and phenylacetone as substrates. Assays were done in the presence of 50 mM Tris-HCl [pH 8.0] and 0.4 mM NADP^+ (alcohol oxidation), or pH 6.5 and 0.4 mM NADPH (ketone reduction). Initial velocity was measured spectrophotometrically at 60° C. by following NADPH production (alcohol oxidation) or consumption (ketone reduction) at 340 nm for 1 min in a Varian Cary 300 UV/Vis spectrophotometer equipped with a Peltier heating system. The enzyme was preincubated for at least 5 min at 40° C. before being added to the assays. […] One unit of activity was defined as the amount of enzyme needed to consume or produce 1 μmol of NADPH per minute.

Y267G TeSADH = molecular target: T2, Y267G TeSADH (Thermoanaerobacter brockii, UniProt P14941, A186D/Y267G); format: biochemical, Thermoanaerobacter ethanolicus; settings: heat-treated crude extracts
T2 construct: His6 (C); made in house; host or cells: E. coli, pET24a(+); heat-treated crude extract
T2 sequence (P14941 whole entry A186D/Y267G): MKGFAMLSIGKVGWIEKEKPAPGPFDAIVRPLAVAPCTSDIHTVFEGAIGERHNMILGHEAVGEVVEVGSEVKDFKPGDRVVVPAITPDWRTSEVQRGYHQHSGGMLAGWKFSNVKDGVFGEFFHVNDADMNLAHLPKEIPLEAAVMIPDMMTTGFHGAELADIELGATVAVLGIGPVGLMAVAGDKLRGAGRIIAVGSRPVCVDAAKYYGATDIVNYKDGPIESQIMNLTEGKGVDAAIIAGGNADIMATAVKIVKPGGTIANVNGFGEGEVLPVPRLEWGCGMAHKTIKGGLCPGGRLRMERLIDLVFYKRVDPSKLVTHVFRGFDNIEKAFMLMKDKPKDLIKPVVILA
Method: as §1

Wild-type TeSADH [1] = molecular target: T3, Wild-type TeSADH (Thermoanaerobacter brockii, UniProt P14941, A186D); format: biochemical, Thermoanaerobacter ethanolicus; set-up: made in house; the wild-type adhB gene sat in plasmid pADHBIM1-kan; settings: heat-treated crude extracts
T3 sequence (P14941 whole entry A186D): as the sequence (P14941 whole entry A186D) above
Method: as §1

Wild-type TeSADH [2] = molecular target: T3, Wild-type TeSADH; settings: 60° C., 1 min, 50 mM Tris-HCl pH ~8.0 (alcohols) or ~6.5 (ketones), 0.4 mM NADP(H)
Method: At least eight substrate concentrations were used for each data set and each set was performed in triplicate.

[3] = enzyme concentration estimated by SDS-PAGE

Compound	Specific activity, WT (wild-type (WT) TeSADH; substrate 7.5 mM)	Activity of Y267G TeSADH (Y267G TeSADH)	further results
CC(O)CCc1ccccc1 (racemic) [(rac)-4-Phenyl-2-butanol]	0.29 U(umol)/mg protein	no detectable activity	–
CC(O)Cc1ccccc1 (racemic) [(rac)-1-phenyl-2-propanol]	–	no detectable activity	Specific activity, WT (wild-type (WT) TeSADH; substrate 10 mM): 0.14 U(umol)/mg protein
CCC(C)O (stereo not drawn) [2-Butanol]	45.27 U(umol)/mg protein	–	Specific activity of Y267G TeSADH (Y267G TeSADH; [3]): ~33 U/mg; Specific activity of wild-type TeSADH (Wild-type TeSADH [1]; [3]): ~41 U/mg; Vmax (app), Wild-type TeSADH (Wild-type TeSADH [2]): 37 U/mg; Km (Wild-type TeSADH [2]; read-out: Km (app), Wild-type TeSADH): 510 µM
CC(O)c1ccccc1 (racemic) [(rac)-1-Phenethyl alcohol]	–	no detectable activity	Specific activity, WT (wild-type (WT) TeSADH; substrate 10 mM): 0.15 U(umol)/mg protein
CC(=O)c1ccccc1 [Acetophenone]	0.90 U(umol)/mg protein	–	–
CC(=O)CCc1ccccc1 [1a, 4-Phenyl-2-butanone]	5.94 U(umol)/mg protein	–	Activity of wild-type TeSADH (Wild-type TeSADH [1]): only slight activity
CC(=O)Cc1ccccc1 [7a, 1-phenyl-2-propanone]	1.02 U(umol)/mg protein	–	–
